Reference: patent US20190314197A1, “Topical Ocular Delivery Methods and Devices for Use in the Same” (Kedalion Therapeutics, Inc., priority 2018, published 2019)

Columns and labels:
Format in all cases: in vivo, human
[1] = Trial 2: intraocular pressure reduction (Goldmann applanation tonometry) in primary open angle glaucoma patients; conditions: for average IOP decrease measured per patient: approximately 8 hours after dosing
Protocol: Trial 2 compared the efficacy (dose volume equivalence) of 0.005% w/v latanoprost for intraocular pressure reduction when delivered via AcuStream™ (pre-trial calibration volume=9.2 μl) versus the standard eye dropper for topical drug delivery (approximate volume=30 μl).
Patients included in Trial 2 have previously been diagnosed with primary open angle glaucoma on the basis of intraocular pressure and visual field testing, fundus examination or optical coherence tomography (OCT) data and are currently on prostaglandin analog medical therapy. Patients with corneal abnormalities that would interfere with accurate IOP measurements with applanation tonometry, use of an oral or topical ophthalmic steroids within the past 14 days from screening date, any active ocular surface or anterior segment disease, or progressive field loss during the past year were excluded from the study. Thirteen men and five women participated in the trial.
Recruited patients were taken off medical therapy for a period of 3-4 weeks prior to the study to allow drug “wash out”, thereby elevating their IOPs to pre-treatment levels which was confirmed by examination of the patients' chart history. Patients were randomly assigned as “test” (AcuStream™), or “control” (standard eye dropper). The mean age of the control group and test group were 61.0 years and 65.2 years, respectively.
The patients assigned to either the “test” or “control” group by means of a random numbers table in order to mitigate any potential cross-over effects that could confound data interpretation. An odd number dictated that the patient was in the test group, while even-numbered patients were in the control group.
After performing slit lamp examinations on each patient to verify eligibility and obtaining informed consent, intraocular pressure (IOP) was measured by a sole experienced examiner who was blind to the randomized conditions. A pre-calibrated Goldmann applanation tonometer coupled to a Haag-Streit 900 EQ slit lamp was used to conduct baseline IOP measurements. Once baseline IOP data were verified to be equivalent to pre-medical therapy levels (based on patient's treatment history), the patient then continued to the dosing stage of the study.
Latanoprost solution was administered by a sole ophthalmologist to both eyes of each patient, based on the pre-determined randomized condition.

[2] = Pupil diameter after self-administered pilocarpine micro-dose (presbyopia); conditions: non-dosed fellow eye
Protocol: (§1) A 10 μl micro-dose of a 1% pilocarpine solution was self-administered using an electromagnetic actuated fluid delivery device, e.g., as described above, by three subjects to their own eye. The age range of the subjects was 52 years to 68 years, and all subjects were male. The pilocarpine micro-dose was self-administered by the subjects.
(§2) Baseline, pre-dose values of pupil diameter and near visual acuity in both eyes prior to dosing was measured for all subjects, and then following the baseline measurements, the subjects were dosed in only one eye (the eye with the poorer visual acuity) with the micro-dose pilocarpine solution. Approximately 45 to 60 minutes after dosing, pupil diameter and near visual acuity were again tested. Near visual acuity was measured using a Snellen card at a distance of 40 cm. A tabulation of results is given below in Table A.

[3] = Near visual acuity (Snellen card at 40 cm) after pilocarpine micro-dose (presbyopia); conditions: dosed eye
Protocol: as §1, §2

SMILES | average IOP decrease measured per patient ([1]; AcuStream (test group)) [mm Hg] | difference in IOP reduction between AcuStream and standard dropper groups ([1]; Wilcoxon Ranked Sum test, p=0.3447) | post-instillation IOP, single patient outlier ([1]; control group (standard dropper), OD, baseline IOP 30 mm Hg) [mm Hg] | equivalence of 9.2 μl AcuStream dose volume to 30 μl standard eye drops, intraocular pressure reduction ([1]; human, in vivo) | average IOP decrease measured per patient ([1]; standard eye dropper (control group)) [mm Hg] | miotic effect in non-dosed eye [2] | mean improvement in near visual acuity ([3]; all subjects) [lines] | # of lines change in visual acuity ([3]; mean of 3 subjects) [lines]
CC(C)OC(=O)CCC/C=C\C[C@@H]1[C@@H](CC[C@@H](O)CCc2ccccc2)[C@H](O)C[C@@H]1O [latanoprost] | 5.0 | no statistically significant differences | 17 | pharmacodynamic equivalence | 4.3 | – | – | –
CC[C@@H]1C(=O)OC[C@@H]1Cc1cncn1C [pilocarpine] | – | – | – | – | – | no miotic effect | 2 | 2
